# Reference: PMC6631349 (Xenobiotica; the fate of foreign compounds in biological …, 2014)
# Like-named read-outs stand apart in the source and are kept apart here.
# Columns and labels:
# Conditions in all cases: recombinant human UGT, mean of triplicate
# UGT2B7 = molecular target: T1, UGT2B7 (Homo sapiens, UniProt P16662); assay: UGT2B7 supersomes-catalyzed 4-MU glucuronidation inhibition
# T1 sequence (P16662 24-529): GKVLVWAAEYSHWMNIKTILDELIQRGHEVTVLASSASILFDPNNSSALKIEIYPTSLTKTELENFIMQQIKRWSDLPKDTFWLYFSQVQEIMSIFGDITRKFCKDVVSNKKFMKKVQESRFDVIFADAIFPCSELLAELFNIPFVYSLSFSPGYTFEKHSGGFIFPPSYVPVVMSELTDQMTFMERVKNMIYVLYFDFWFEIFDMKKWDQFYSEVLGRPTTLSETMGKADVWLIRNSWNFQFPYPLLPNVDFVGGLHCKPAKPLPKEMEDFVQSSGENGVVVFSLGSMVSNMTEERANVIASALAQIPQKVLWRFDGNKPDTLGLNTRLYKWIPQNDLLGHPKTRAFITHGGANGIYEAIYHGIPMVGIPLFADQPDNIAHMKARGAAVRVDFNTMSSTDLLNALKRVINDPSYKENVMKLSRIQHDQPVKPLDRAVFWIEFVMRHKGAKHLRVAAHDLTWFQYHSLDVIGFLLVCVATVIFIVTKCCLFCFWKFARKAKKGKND
# UGT1A8 = molecular target: T2, UGT1A8 (Homo sapiens, UniProt Q9HAW9)
# T2 sequence (Q9HAW9 26-530): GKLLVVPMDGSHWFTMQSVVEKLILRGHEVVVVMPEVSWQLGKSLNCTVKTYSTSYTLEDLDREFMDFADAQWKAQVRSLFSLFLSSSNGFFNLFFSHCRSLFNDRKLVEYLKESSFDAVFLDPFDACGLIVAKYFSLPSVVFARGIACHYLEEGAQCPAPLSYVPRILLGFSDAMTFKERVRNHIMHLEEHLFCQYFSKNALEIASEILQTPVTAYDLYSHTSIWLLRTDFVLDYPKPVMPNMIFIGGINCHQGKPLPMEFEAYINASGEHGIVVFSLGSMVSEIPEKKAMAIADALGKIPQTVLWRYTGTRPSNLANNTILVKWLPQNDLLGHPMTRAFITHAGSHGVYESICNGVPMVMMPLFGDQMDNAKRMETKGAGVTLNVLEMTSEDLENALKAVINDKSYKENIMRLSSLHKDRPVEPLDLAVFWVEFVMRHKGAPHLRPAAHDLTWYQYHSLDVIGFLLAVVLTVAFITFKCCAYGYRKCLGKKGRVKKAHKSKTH
# UGT1A6 = molecular target: T3, UGT1A6 (Homo sapiens, UniProt P19224)
# T3 sequence (P19224 27-532): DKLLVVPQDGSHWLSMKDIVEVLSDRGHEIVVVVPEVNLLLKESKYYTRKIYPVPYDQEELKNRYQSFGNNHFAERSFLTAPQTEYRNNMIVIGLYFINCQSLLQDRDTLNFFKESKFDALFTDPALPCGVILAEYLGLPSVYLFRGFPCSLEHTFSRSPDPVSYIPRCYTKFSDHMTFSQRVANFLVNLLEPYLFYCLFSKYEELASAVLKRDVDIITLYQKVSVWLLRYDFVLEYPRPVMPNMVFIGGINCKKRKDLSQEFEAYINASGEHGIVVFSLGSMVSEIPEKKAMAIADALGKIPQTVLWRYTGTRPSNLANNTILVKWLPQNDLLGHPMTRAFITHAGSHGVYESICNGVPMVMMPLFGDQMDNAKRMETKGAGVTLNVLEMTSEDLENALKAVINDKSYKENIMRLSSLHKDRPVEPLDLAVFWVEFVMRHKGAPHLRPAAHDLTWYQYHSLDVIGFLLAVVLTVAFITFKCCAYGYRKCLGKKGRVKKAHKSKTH
# UGT1A1 = molecular target: T4, UGT1A1 (Homo sapiens, UniProt P22309); assay: UGT1A1 supersomes-catalyzed 4-MU glucuronidation inhibition
# T4 sequence (P22309 26-533): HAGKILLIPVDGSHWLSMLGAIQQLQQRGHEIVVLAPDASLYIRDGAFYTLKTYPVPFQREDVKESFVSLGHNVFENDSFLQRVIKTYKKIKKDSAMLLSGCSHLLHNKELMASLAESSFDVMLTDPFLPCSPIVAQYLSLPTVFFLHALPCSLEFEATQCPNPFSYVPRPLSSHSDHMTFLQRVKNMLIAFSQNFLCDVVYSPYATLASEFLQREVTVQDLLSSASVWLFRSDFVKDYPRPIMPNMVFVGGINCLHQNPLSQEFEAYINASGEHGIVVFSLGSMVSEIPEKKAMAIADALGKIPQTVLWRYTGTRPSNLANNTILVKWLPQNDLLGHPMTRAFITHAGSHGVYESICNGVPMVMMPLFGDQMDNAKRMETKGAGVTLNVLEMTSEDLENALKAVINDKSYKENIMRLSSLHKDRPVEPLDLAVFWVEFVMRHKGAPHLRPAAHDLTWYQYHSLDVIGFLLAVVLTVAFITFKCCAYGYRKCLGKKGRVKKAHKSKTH
# UGT2B4 = molecular target: T5, UGT2B4 (Homo sapiens, UniProt P06133); assay: UGT2B4 supersomes-catalyzed 4-MU glucuronidation inhibition
# T5 sequence (P06133 24-528): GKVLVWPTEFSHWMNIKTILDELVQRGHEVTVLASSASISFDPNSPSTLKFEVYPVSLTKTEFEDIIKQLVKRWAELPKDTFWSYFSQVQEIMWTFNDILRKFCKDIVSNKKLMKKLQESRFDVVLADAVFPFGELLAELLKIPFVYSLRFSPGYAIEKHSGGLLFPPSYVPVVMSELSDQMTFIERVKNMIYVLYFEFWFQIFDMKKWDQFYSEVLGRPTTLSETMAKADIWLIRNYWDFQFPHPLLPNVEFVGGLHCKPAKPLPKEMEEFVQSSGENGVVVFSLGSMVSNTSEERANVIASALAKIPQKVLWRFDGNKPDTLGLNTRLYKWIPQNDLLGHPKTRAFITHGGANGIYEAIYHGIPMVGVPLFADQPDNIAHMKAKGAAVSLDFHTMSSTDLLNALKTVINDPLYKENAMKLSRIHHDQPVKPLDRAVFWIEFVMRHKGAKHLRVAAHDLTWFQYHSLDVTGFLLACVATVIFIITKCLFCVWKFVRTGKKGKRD
Structure (SMILES),residual activity 2B7 (UGT2B7; 50 μM PC components),residual activity 1A8 (UGT1A8; 50 μM PC components),residual activity 1A6 (UGT1A6; 50 μM PC components),residual activity 1A1 (UGT1A1; 50 μM PC components),residual activity 2B4 (UGT2B4; 50 μM PC components),residual activity 2B7 (UGT2B7; 50 μM LPC components),residual activity 1A8 (UGT1A8; 50 μM LPC components),residual activity 1A6 (UGT1A6; 50 μM LPC components),residual activity 1A1 (UGT1A1; 50 μM LPC components),residual activity 2B4 (UGT2B4; 50 μM LPC components)
"CCCCCC(=O)OC[C@H](COP(=O)([O-])OCC[N+](C)(C)C)OC(=O)CCCCC [PC 6:0, 6:0]",70.2%,116.2%,67.3%,187.8%,178.7%,,,,,
"CCCCCCC(=O)OC[C@H](COP(=O)([O-])OCC[N+](C)(C)C)OC(=O)CCCCCC [PC 7:0, 7:0]",64.5%,106.1%,50.7%,176.8%,186.9%,,,,,
CCCCCCCCC(=O)OC[C@@H](O)COP(=O)([O-])OCC[N+](C)(C)C [LPC 9:0],,,,,,76.2%,101.2%,67.2%,179.6%,179.1%
"CCCCCCCCCCCCCCCCCCCC(=O)OC[C@H](COP(=O)([O-])OCC[N+](C)(C)C)OC(=O)CCCCCCCCCCCCCCCCCCC [PC 20:0, 20:0]",88.9%,94.9%,88.2%,202.3%,79.5%,,,,,
"CCCCCCCCCCCCCCC(=O)OC[C@H](COP(=O)([O-])OCC[N+](C)(C)C)OC(=O)CCCCCCCCCCCCCC [PC 15:0, 15:0]",51.7%,105.9%,55.0%,210.1%,191.3%,,,,,
"CCCCCCCCCCCCCCCCC(=O)OC[C@H](COP(=O)([O-])OCC[N+](C)(C)C)OC(=O)CCCCCCCCCCCCCCCC [PC 17:0, 17:0]",35.5%,92.1%,49.1%,192.3%,175.4%,,,,,
"CC/C=C\C/C=C\C/C=C\C/C=C\C/C=C\C/C=C\CCC(=O)O[C@H](COC(=O)CCCCCCCCCCCCCCCCC)COP(=O)([O-])OCC[N+](C)(C)C [PC 18:0, 22:6, 1-stearoyl-2-docosahexaenoyl-sn-glycero-3-phosphocholine]",73.6%,116.1%,88.8%,186.6%,183.2%,,,,,
"CCCCCCCCCCCCC(=O)OC[C@H](COP(=O)([O-])OCC[N+](C)(C)C)OC(=O)CCCCCCCCCCCC [PC 13:0, 13:0]",81.4%,114.3%,56.5%,201.1%,193.8%,,,,,
"CCCCCCCCCCCCCCCC(=O)OC[C@H](COP(=O)([O-])OCC[N+](C)(C)C)OC(=O)CCCCCCCCCCCCCCC [PC 16:0, 16:0]",60.3%,107.6%,53.7%,192.6%,185.1%,,,,,
